Usually melting point stands for the temperature, or range, at which the solid turns liquid. The compound `Cl.Cl.N[C@H](Cc1ccccc1)C(=O)N1CCC[C@H]1C(=O)NC1CCc2n[nH]cc2C1` (stereo partly drawn) returned a melting point of 203 to 206 °C.
For `Cl.Cl.Nc1ncc2c(n1)CCC(NC(=O)[C@@H]1CCCN1C(=O)[C@@H](N)C(c1ccccc1)c1ccccc1)C2` (stereo partly drawn), the melting point lay in the range of 212 to 215 °C.
Compound `Cl.Cl.Nc1ncc2c(n1)CCC(NC(=O)[C@@H]1CCCN1C(=O)[C@H](N)Cc1ccc(Cl)c(Cl)c1)C2` (stereo partly drawn) displayed a melting point of 201 to 204 °C.
The value for `Cl.Cl.N[C@H](C(=O)N1CCC[C@H]1C(=O)NC1CCc2n[nH]cc2C1)C(c1ccccc1)c1ccccc1` (stereo partly drawn) was 195 to 198 °C; that for `Cl.Cl.N[C@H](Cc1ccc(Cl)c(Cl)c1)C(=O)N1CCC[C@H]1C(=O)NC1CCc2n[nH]cc2C1` (stereo partly drawn) was 199 to 202 °C; that for `Cl.Cl.Nc1ncc2c(n1)CCC(NC(=O)[C@@H]1CCCN1C(=O)[C@H](N)C(c1ccccc1)c1ccccc1)C2` (stereo partly drawn) was 199 to 202 °C.
The compound `Cl.Cl.Nc1nc2c(s1)CC(NC(=O)[C@@H]1CCCN1C(=O)[C@H](N)Cc1ccccc1)CC2` (stereo partly drawn) displayed a melting point of 225 to 228 °C.
With `Cl.Cl.Nc1nc2c(s1)CC(NC(=O)[C@@H]1CCCN1C(=O)[C@H](N)Cc1ccc(Cl)c(Cl)c1)CC2` (stereo partly drawn), the melting point was in the range of 166 to 169 °C.
The value for `Cl.Cl.Nc1nc2c(s1)CC(NC(=O)[C@@H]1CCCN1C(=O)[C@@H](N)C(c1ccccc1)c1ccccc1)CC2` (stereo partly drawn) was 155 to 158 °C.
The compound `Cl.Cl.N[C@@H](C(=O)N1CCC[C@H]1C(=O)NC1CCc2n[nH]cc2C1)C(c1ccccc1)c1ccccc1` (stereo partly drawn) displayed a melting point of 190 to 193 °C.
The value for `Cl.N[C@H](Cc1ccc(Cl)c(Cl)c1)C(=O)N1CCC[C@H]1C(=O)NCC1CCc2n[nH]cc2C1` (stereo partly drawn) was 145 to 148 °C; that for `Cl.Cl.Nc1ncc2c(n1)CCC(CNC(=O)[C@@H]1CCCN1C(=O)[C@H](N)Cc1ccc(Cl)c(Cl)c1)C2` (stereo partly drawn) was 169 to 172 °C; that for `Cl.Cl.O=C(O)CN[C@H](CC1CCCCC1)C(=O)N1CCC[C@H]1C(=O)NCC1CCc2n[nH]cc2C1` (stereo partly drawn) was 144 to 147 °C.
Next, `Cl.Cl.Nc1ncc2c(n1)CCC(CNC(=O)[C@@H]1CCCN1C(=O)[C@H](N)C(c1ccccc1)c1ccccc1)C2` (stereo partly drawn): 166 to 168 °C; `Cl.Cl.Nc1nc2c(s1)CC(NC(=O)[C@@H]1CCCN1C(=O)[C@@H](CC1CCCCC1)NCC(=O)O)CC2` (stereo partly drawn): 180 to 182 °C.
The value for `Cl.Cl.Nc1ncc2c(n1)CCC(NC(=O)[C@@H]1CCCN1C(=O)[C@H](N)Cc1ccccc1)C2` (stereo partly drawn) was 205 to 208 °C; that for `Nc1ncc2c(n1)CCC(NC(=O)[C@@H]1CCCN1C(=O)[C@@H](Cc1ccccc1)NS(=O)(=O)Cc1ccccc1)C2` (stereo partly drawn) [Example 6, (2S)-N-(2-Amino-5,6,7,8-tetrahydro-6-quinazolinyl)-1-{(2R)-2-[(benzylsulfonyl)amino]-3-phenylpropanoyl}-2-pyrrolidinecarboxamide] was 117 to 120 °C; that for `CC(C)(C)OC(=O)N[C@H](Cc1ccccc1)C(=O)N1CCC[C@H]1C(=O)NC1CCc2nc(N)ncc2C1` (stereo partly drawn) [Example 7] was 110 to 113 °C.
In turn, `O=C(NC1CCc2n[nH]cc2C1)[C@@H]1CCCN1C(=O)[C@@H](Cc1ccccc1)NS(=O)(=O)Cc1ccccc1` (stereo partly drawn) [Example 9, (2S)-1-{(2R)-2-[(Benzylsulfonyl)amino]-3-phenylpropanoyl}-N-(4,5,6,7-tetrahydro-2H-indazol-5-yl)-2-pyrrolidinecarboxamide] displayed a melting point of 114 to 116 °C.
Next, `CC(C)(C)OC(=O)N[C@H](Cc1ccccc1)C(=O)N1CCC[C@H]1C(=O)NC1CCc2n[nH]cc2C1` (stereo partly drawn) [Example 10, tert-Butyl (1R)-1-benzyl-2-oxo-2-{(2S)-2-[(4,5,6,7-tetrahydro-2H-indazol-5-ylamino)carbonyl]pyrrolidinyl}ethylcarbamate]: 108 to 110 °C.
`Nc1ncc2c(n1)CCC(CNC(=O)[C@@H]1CCCN1C(=O)[C@@H](Cc1ccccc1)NS(=O)(=O)Cc1ccccc1)C2` (stereo partly drawn) [Example 12, (2S)-N-[(2-Amino-5,6,7,8-tetrahydro-6-quinazolinyl)methyl]-1-{(2R)-2-[(benzylsulfonyl)amino]-3-phenylpropanoyl}-2-pyrrolidinecarboxamide] returned a melting point of 118 to 121 °C.
The value for `CC(C)(C)OC(=O)N[C@H](C(=O)N1CCC[C@H]1C(=O)NC1CCc2nc(N)ncc2C1)C(c1ccccc1)c1ccccc1` (stereo partly drawn) [Example 13, tert-Butyl (1S)-2-((2S)-2-{[(2-amino-5,6,7,8-tetrahydro-6-quinazolinyl)amino]carbonyl}pyrrolidinyl)-1-benzhydryl-2-oxoethylcarbamate] was 127 to 130 °C.
Next, `CC(C)(C)OC(=O)N[C@H](Cc1ccc(Cl)c(Cl)c1)C(=O)N1CCC[C@H]1C(=O)NC1CCc2nc(N)ncc2C1` (stereo partly drawn) [Example 14, tert-Butyl (1R)-2-((2S)-2-{[(2-amino-5,6,7,8-tetrahydro-6-quinazolinyl)amino]carbonyl}pyrrolidinyl)-1-(3,4-dichlorobenzyl)-2-oxoethylcarbamate]: 114 to 117 °C; `CC(C)(C)OC(=O)N[C@H](C(=O)N1CCC[C@H]1C(=O)NC1CCc2n[nH]cc2C1)C(c1ccccc1)c1ccccc1` (stereo partly drawn) [Example 15, tert-Butyl (1S)-1-benzhydryl-2-oxo-2-{(2S)-2-[(4,5,6,7-tetrahydro-2H-indazol-5-ylamino)carbonyl]pyrrolidinyl}ethylcarbamate]: 127 to 130 °C.
The value for `CC(C)(C)OC(=O)N[C@H](Cc1ccc(Cl)c(Cl)c1)C(=O)N1CCC[C@H]1C(=O)NC1CCc2n[nH]cc2C1` (stereo partly drawn) [Example 16, tert-Butyl (1R)-1-(3,4dichlorobenzyl)-2-oxo-2-{(2S)-2-[(4,5,6,7-tetrahydro-2H-indazol-5-ylamino)carbonyl]pyrrolidinyl}ethylcarbamate] was 116 to 119 °C.
As to `Nc1ncc2c(n1)CCC(NC(=O)[C@@H]1CCCN1C(=O)[C@@H](CC1CCCCC1)NS(=O)(=O)Cc1ccccc1)C2` (stereo partly drawn) [Example 21, (2S)-N-(2-Amino-5,6,7,8-tetrahydro-6-quinazolinyl)-1-{(2R)-2-[(benzylsulfonyl)amino]-3-cyclohexylpropanoyl}-2-pyrrolidinecarboxamide], the melting point was in the range of 114 to 117 °C.
The value for `O=C(NC1CCc2n[nH]cc2C1)[C@@H]1CCCN1C(=O)[C@@H](CC1CCCCC1)NS(=O)(=O)Cc1ccccc1` (stereo partly drawn) [Example 22, (2S)-1-{(2R)-2-[(Benzylsulfonyl)amino]-3-cyclohexylpropanoyl}-N-(4,5,6,7-tetrahydro-2H-indazol-5-yl)-2-pyrrolidinecarboxamide] was 106 to 109 °C; that for `CC(C)(C)OC(=O)N[C@@H](C(=O)N1CCC[C@H]1C(=O)NC1CCc2nc(N)ncc2C1)C(c1ccccc1)c1ccccc1` (stereo partly drawn) [Example 23, tert-Butyl (1R)-2-((2S)-2-{[(2-amino-5,6,7,8-tetrahydro-6-quinazolinyl)amino]carbonyl}pyrrolidinyl)-1-benzhydryl-2-oxoethylcarbamate] was 128 to 131 °C.
Next, `CC(C)(C)OC(=O)N[C@H](Cc1ccccc1)C(=O)N1CCC[C@H]1C(=O)NC1CCc2nc(N)sc2C1` (stereo partly drawn) [Example 25, tert-Butyl (1R)-2-((2S)-2-{[(2-amino-4,5,6,7-tetrahydro-1,3-benzothiazol-6-yl)amino]carbonyl}pyrrolidinyl)-1-benzyl-2oxoethylcarbamate]: 120 to 123 °C; `Nc1nc2c(s1)CC(NC(=O)[C@@H]1CCCN1C(=O)[C@@H](Cc1ccccc1)NS(=O)(=O)Cc1ccccc1)CC2` (stereo partly drawn) [Example 27, (2S)-N-(2-amino-4,5,6,7-tetrahydro-1,3-benzothiazol-6-yl)-1-{(2R)-2-[(benzylsulfonyl)amino]-3-phenylpropanoyl}-2-pyrrolidinecarboxamide]: 126 to 129 °C; `Nc1nc2c(s1)CC(NC(=O)[C@@H]1CCCN1C(=O)[C@@H](CC1CCCCC1)NS(=O)(=O)Cc1ccccc1)CC2` (stereo partly drawn) [Example 28, (2S)-N-(2-Amino-4,5,6,7-tetrahydro-1,3-benzothiazol-6-yl)-1-{(2R)-2-[(benzylsulfonyl)amino]-3-cyclohexylpropanoyl}-2-pyrrolidinecarboxamide]: 127 to 130 °C.
For the compound `Nc1nc2c(s1)CC(NC(=O)[C@@H]1CCCN1C(=O)[C@@H](Cc1ccccc1)NS(=O)(=O)c1ccc3ccccc3c1)CC2` (stereo partly drawn) [Example 30, (2S)-N-(2-Amino-4,5,6,7-tetrahydro-1,3-benzothiazol-6-yl)-1-{(2R)-2-[(2-naphthylsulfonyl)amino]-3-phenylpropanoyl}-2-pyrrolidinecarboxamide], the melting point lay in the range of 128 to 131 °C.
The value for `Nc1nc2c(s1)CC(NC(=O)CNC(=O)[C@@H](Cc1ccccc1)NS(=O)(=O)Cc1ccccc1)CC2` (stereo partly drawn) [Example 31, (2R)-N-{2-[(2-Amino-4,5,6,7-tetrahydro-1,3-benzothiazol-6-yl)amino]-2-oxoethyl}-2-[(benzylsulfonyl)amino]3-phenylpropanamide] was 119 to 122 °C; that for `C[C@H](NC(=O)[C@@H](Cc1ccccc1)NS(=O)(=O)Cc1ccccc1)C(=O)NC1CCc2nc(N)sc2C1` (stereo partly drawn) [Example 32, (2R)-N-{(1S)-2-[(2-Amino-4,5,6,7-tetrahydro-1,3-benzothiazol-6-yl)amino]-1-methyl-2-oxoethyl}-2-[(benzylsulfonyl)amino]-3-phenylpropanamide] was 122 to 125 °C; that for `Nc1nc2c(s1)CC(NC(=O)[C@@H]1CCCN1C(=O)CNC(c1ccccc1)(c1ccccc1)c1ccccc1)CC2` (stereo partly drawn) [Example 33, (2S)-N-(2-Amino-4,5,6,7-tetrahydro-1,3-benzothiazol-6-yl)-1-[2-(tritylamino)acetyl]-2-pyrrolidinecarboxamide] was 125 to 128 °C.
Consider `CC(C)(C)OC(=O)N[C@H](Cc1ccc(Cl)c(Cl)c1)C(=O)N1CCC[C@H]1C(=O)NC1CCc2nc(N)sc2C1` (stereo partly drawn) [Example 34, tert-Butyl (1R)-2-((2S)-2-{[(2-amino-4,5,6,7-tetrahydro-1,3-benzothiazol-6-yl)amino]carbonyl}pyrrolidinyl)-1-(3,4-dichlorobenzyl)-2-oxoethylcarbamate], for which the melting point fell in the range of 116 to 119 °C.

The values above are taken from US7112590B2, “Thrombin inhibitors” (LEK Pharmaceuticals d.d., priority 2000, dated 2006).
